Test results reported in US10293020B2, “Peptide therapeutics and methods for using same” (Stealth BioTherapeutics Corp, priority 2013, dated 2019).
Non-standard residues stand in square brackets, D forms with d. No end group written: not given here. Cha = N[C@@H](CC1CCCCC1)C(=O)O

Columns and labels:
[1] = 13C MAS PRE solid-state NMR of peptide in Mn2+-bound vesicles; format: physicochemical
Excerpt: (§1) Large unilamellar vesicles (LUVs) with a transmembrane gradient of about −180 mV are constructed, composed of a mixture of cardiolipin (CL, 10% mol), phosphatidylcholine (PC, 50% mol), and phosphatidylethanolamine (PE, 40% mol). An electrochemical gradient is incorporated because the transloation of MPPs is known to be highly dependent on electrochemical potential. Spectra from three different peptide-lipid systems are compared: Mn^2+ free, Mn^2+ bound to one side of the vesicle, and Mn^2+ bound to both the inside and outside of the vesicle.
A pH difference is used to establish a transmembrane gradient. The membrane encapsulates 300 mM pH 4 phosphate buffer inside the vesicle and 10 mM pH 7 phosphate buffer outside to establish an electrochemical potential of −177 mV, which is reflective of the biologically encountered mitochondrial gradient of −180 mV. The existence of a three unit pH gradient is confirmed by the fluorescence response of 9-aminoacridine as previously described.
Hydrated CL/PC/PE membranes are formed by dissolving the lipids in a 95:5 benzene:ethanol mixture at an appropriate molar ratio of 0.1/0.5/0.4, respectively. The lipid mixture is lyophilized overnight. The dried lipid cake is rehydrated with 300 mM phosphate buffer at pH 4 which is heated to 85° C. The rehydrated lipid sample is incubated for 2 hours at 85° C. and vortexed periodically to produce multilamellar vesicles (MLVs). The resulting MLVs are down-sized using a mini extruder (Avanti Polar Lipids, Inc.) and passed through a 100 nm polycarbonate membrane 21 times to produce LUVs of uniform diameter of 100 nm. The size of the vesicles is confirmed by dynamic light scattering on a ZetaPALS particle size analyzer. The LUVs are dialyzed for at least 8 hours using a Slide-A-Lyzer (Thermo Fisher Scientific) to remove the low pH, high salt buffer and replace it with 10 mM phosphate buffer at pH 7 for the exterior membrane environment.
After dialysis, the MPP is added at the appropriate molar ratio (P:L=1:10 or P:L=1:40) to the LUVs and incubated overnight. The MPP-lipid mixture is centrifuged at 160 000 g for 1.5 hours to yield a hydrated pellet, which is packed into a 200 μL MAS rotor. For the Mn^2+ containing samples, the Mn^2+ solution is prepared from MnCl2.4H2O and added at 8 mol % of the lipids. To obtain one side Mn^2+ bound vesicles, the Mn^2+ solution is either added after ultracentrifugation or during extrusion, producing outside-bound and inside-bound one side Mn^2+ bound samples. For two side Mn^2+ bound vesicles, the vesicles are extruded with the appropriate percentage of Mn^2+ and had Mn^2+ added after dialysis to replace the ions lost during this process.
(§2) The spinning rate for all MAS experiments is 5 kHz, performed at 310 K. ^13C direct polarization (DP) MAS NMR spectra is decoupled with two pulse phase modulation (TPPM) at ^1H field strengths of 30 kHz. Typical radiofrequency (rf) pulse lengths are ˜5 μs for ^13C and ˜2 μs for ^1H. Static ^31P spectra are decoupled with WALTZ-16 at ^1H field strengths of 6 kHz. Typical rf pulse lengths are ˜4 μs for ^31P.
To assess the remaining two mechanisms of translocation (electroporation and guanidinium-phosphate complexation), a ^13C MAS NMR PRE method at 310 K is used. In order to assure asymmetric distribution of Mn^2+ paramagnetic ions with the new model inner mitochondrial membranes, the ion position is monitoted with the ^31P NMR signal of the lipid heagroups. Without paramagnetic ions present, the entire signal is measured from all the phospholipid headgroups. The addition of Mn^2+ to the outside of the vesicles is expected to cause signal attenuation of about half the lipids, corresponding to dephasing of the outer leaflet. When the paramagnetic ions are on both sides of the bilayer, the entire ^31P signal is expected to be killed because all lipid headgroups will be in close proximity to Mn^2+. […]

[2] = Variable temperature static 31P NMR of membrane integrity; format: physicochemical; conditions: P:L=1:12.5, 280 K-360 K
Excerpt: as §1, §2
Static ^31P chemical shift anisotropy NMR measurements are conducted at variable temperatures (280 K-360 K) to determine if any changes in membrane morphology or lipid transition temperatures occurr upon peptide binding. The ^31P NMR spectra of the model mitochondria membranes alone are recorded to provide a comparison to the peptide-bound membranes. […]

insertion depth in the bilayer ([1]; P:L=1:10): inserted into both leaflets at C2 | insertion depth in the bilayer ([1]; P:L=1:40): inserted at approximately C1-C2 | leaflet distribution of the peptide ([1]; low peptide concentration, P:L=1:40): binds only to the outer leaflet | peptide 13C peak signal intensity retained vs unbound sample ([1]; one side Mn2+ bound, P:L=1:10): ~75% | peptide 13C peak signal retention ([1]; two side Mn2+ bound, P:L=1:10): about 50% | effect on bilayer integrity [2]: does not alter the bilayer integrity
Substance: [Cha]R[Cha]K-NH2 [MPP]
leaflet distribution of the peptide ([1]; high peptide concentration, P:L=1:10): distributed in both the inner and outer leaflet
